The numbers were not newly measured in patent US8992947B2, “Method for predicting therapeutic effect of chemotherapy on renal cell cancer” (Taiho Pharmaceutical Co., Ltd., priority 2009, dated 2015), which cites them from elsewhere.

The subject of the data set is renal cell carcinoma. The note with it: most effective agent in summary of 83 clinical test results.

As for `O=c1[nH]cc(F)c(=O)[nH]1` [5-fluorouracil (5-FU), 5-fluorouracil], the response rate is on record as 13.4%. With `O=c1[nH]c(=O)n([C@H]2C[C@H](O)[C@@H](CO)O2)cc1F` [floxuridine], the response rate is given as 13.4%.
